Literature values as cited in US8951728B2, “Template directed split and mix synthesis of small molecule libraries” (ChemGene Holding ApS, priority 2004, dated 2015).

Target: alphaV/beta3 integrin receptor (Homo sapiens, UniProt P05106+P06756)
Sequence (P06756 31-889 limits assumed): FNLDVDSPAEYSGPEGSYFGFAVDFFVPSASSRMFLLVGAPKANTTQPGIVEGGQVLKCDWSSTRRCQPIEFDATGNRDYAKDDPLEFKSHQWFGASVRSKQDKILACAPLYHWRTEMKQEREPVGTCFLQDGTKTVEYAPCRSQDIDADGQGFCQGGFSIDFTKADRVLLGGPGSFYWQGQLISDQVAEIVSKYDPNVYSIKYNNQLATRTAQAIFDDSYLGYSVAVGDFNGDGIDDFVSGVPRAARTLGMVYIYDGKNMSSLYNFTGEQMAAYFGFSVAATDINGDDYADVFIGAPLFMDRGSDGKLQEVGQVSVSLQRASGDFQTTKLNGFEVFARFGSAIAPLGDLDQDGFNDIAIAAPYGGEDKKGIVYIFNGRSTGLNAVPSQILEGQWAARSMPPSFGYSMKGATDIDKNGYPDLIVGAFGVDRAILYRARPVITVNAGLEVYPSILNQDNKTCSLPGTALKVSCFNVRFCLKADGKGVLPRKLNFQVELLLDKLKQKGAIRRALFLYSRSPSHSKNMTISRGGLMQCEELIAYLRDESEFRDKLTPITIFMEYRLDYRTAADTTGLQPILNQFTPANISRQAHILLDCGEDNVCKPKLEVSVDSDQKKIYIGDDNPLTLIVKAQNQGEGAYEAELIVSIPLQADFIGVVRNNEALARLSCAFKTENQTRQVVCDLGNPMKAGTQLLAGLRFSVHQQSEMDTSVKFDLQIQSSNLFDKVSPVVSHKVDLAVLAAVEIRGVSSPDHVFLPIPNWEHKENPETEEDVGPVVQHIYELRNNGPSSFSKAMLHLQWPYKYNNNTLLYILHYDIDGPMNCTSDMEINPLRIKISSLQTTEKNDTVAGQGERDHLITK
Sequence (P06756 891-1048 limits assumed): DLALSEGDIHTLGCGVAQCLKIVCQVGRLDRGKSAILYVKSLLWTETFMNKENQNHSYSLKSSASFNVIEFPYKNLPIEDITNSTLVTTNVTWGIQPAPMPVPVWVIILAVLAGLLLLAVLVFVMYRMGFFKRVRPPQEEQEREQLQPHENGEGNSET
Sequence (P05106 27-788): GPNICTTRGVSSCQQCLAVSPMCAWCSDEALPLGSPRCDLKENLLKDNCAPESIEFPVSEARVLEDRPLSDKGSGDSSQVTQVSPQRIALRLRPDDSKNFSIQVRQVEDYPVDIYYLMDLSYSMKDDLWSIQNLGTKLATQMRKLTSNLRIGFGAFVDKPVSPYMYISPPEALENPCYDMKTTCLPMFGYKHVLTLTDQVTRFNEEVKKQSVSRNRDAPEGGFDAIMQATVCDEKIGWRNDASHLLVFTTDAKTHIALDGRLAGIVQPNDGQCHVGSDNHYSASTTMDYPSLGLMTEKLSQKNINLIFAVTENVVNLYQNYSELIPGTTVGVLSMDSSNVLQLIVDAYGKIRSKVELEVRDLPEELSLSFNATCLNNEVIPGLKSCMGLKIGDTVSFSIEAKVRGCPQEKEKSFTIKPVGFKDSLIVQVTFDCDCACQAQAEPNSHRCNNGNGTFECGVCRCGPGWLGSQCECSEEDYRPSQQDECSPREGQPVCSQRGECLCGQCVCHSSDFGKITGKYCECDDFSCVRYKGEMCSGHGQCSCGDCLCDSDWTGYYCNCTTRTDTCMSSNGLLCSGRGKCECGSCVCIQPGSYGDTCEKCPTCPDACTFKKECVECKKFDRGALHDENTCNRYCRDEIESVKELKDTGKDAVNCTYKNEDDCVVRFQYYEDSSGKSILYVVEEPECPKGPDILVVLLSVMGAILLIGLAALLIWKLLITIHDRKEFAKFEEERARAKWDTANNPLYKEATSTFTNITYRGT

- affinity compared to the RGD-tripeptide: ten-fold increased affinity
- Kd (Feuston et al., J Med. Chem. 2002): 111 nM
SMILES: O=C(O)CC(NC(=O)CNC(=O)CCCc1ccc2c(n1)NCCC2)C(=O)O (centres unmarked) [Feuston 5]
